# In patent US9163021B2, “Pyrrolo[3,2-c]pyridine tropomyosin-related kinase inhibitors” (Pfizer Limited, priority 2012, dated 2015):
# Molecular target: TRKA (Homo sapiens (Human), UniProt P04629)
# Assay: Isolated TRK enzyme assay (HTRF KinEASE-TK), PV3144 TrkA enzyme assay
# Type: biochemical
# Details: arithmetic mean where more than one reading
# Method in brief: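 His-tagged TrkA cytoplasmic domain preactivated with ATP 20 min, then with compound 20 min at room temperature before 1 µM final biotin-TK substrate; HTRF 665/620 nm read.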
# TRKA, sequence (P04629 441-796): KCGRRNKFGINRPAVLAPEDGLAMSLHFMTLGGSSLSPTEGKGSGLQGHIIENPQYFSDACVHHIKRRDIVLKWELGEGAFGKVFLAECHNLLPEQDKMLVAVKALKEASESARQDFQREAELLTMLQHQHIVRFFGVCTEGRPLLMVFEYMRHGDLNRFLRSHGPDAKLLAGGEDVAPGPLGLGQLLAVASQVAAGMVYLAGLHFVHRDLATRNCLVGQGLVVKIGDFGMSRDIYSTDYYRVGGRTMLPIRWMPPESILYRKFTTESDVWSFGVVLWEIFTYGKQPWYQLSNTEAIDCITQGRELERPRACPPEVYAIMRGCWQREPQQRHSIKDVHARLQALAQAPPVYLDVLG
row,IC50 [nM],Compound
1,110,"CC(C)n1cc(C(=O)c2cc(NC(=O)Cn3cc(C(F)(F)F)nn3)ccn2)c2cnccc21 [Example 53, N-(2-{[1-(propan-2-yl)-1H-pyrrolo[3,2-c]pyridin-3-yl]carbonyl}pyridin-4-yl)-2-[4-(trifluoromethyl)-1H-1,2,3-triazol-1-yl]acetamide]"
2,108,"CC(C)n1cc(C(=O)c2cncc(NC(=O)Cn3ccc(C4CC4)n3)c2)c2cnccc21 [Example 26, 2-(3-cyclopropyl-1H-pyrazol-1-yl)-N-(5-{[1-(propan-2-yl)-1H-pyrrolo[3,2-c]pyridin-3-yl]carbonyl}pyridin-3-yl)acetamide]"
3,26.4,"Cc1oc(C2CC2)nc1CC(=O)Nc1cncc(C(=O)c2cn(C(C)C)c3ccncc23)c1 [Example 19, 2-(2-cyclopropyl-5-methyl-1,3-oxazol-4-yl)-N-(5-{[1-(propan-2-yl)-1H-pyrrolo[3,2-c]pyridin-3-yl]carbonyl}pyridin-3-yl)acetamide]"
4,2370,"CC(C)n1cc(C(=O)c2cncc(NC(=O)Cc3ccccc3Cl)c2)c2cnccc21 [Example 100, 2-(2-chlorophenyl)-N-(5-{[1-(propan-2-yl)-1H-pyrrolo[3,2-c]pyridin-3-yl]carbonyl}pyridin-3-yl)acetamide]"
5,408,"CC(C)(O)Cc1cccc(CC(=O)Nc2cc(C(=O)c3cn(CCO)c4ccncc34)ccn2)c1 [Example 151, N-(4-{[1-(2-hydroxyethyl)-1H-pyrrolo[3,2-c]pyridin-3-yl]carbonyl}pyridin-2-yl)-2-[3-(2-hydroxy-2-methylpropyl)phenyl]acetamide]"
